Results published in patent publication US20140024171A1, “PERYLENE TETRACARBOXYLIC ACID BISIMIDE DERIVATIVE, N-TYPE SEMICONDUCTOR, A METHOD FOR PRODUCING N-TYPE SEMICONDUCTOR, AND ELECTRONIC DEVICE” (NATIONAL UNIVERSITY CORPORATION KAGAWA UNIVERSITY, priority 2012, published 2014).
“Also recorded” adds a separate entry of the source.

Experiments:
[1] = Solubility in organic solvents; format: physicochemical
Experimental: Thus, the liquid crystal compound (1-1) can be formed into a film by a spin coating method using a solution in any of these solvents. The film formation was performed as follows in the present example.
Thus, the liquid crystal compound (2-1) can be formed into a film by a spin coating method using a solution in any of these solvents. The film formation was performed as follows in the present example.

[2] = Charge transport properties (carrier mobility) by transient photocurrent measurement, Time-of-Flight (TOF) method; format: physicochemical; conditions: for maximum electron mobility calculated by the TOF method: room temperature (25° C.), sample thickness 9 μm, applied voltage 10 V to 100 V
Experimental: Charge transport properties (carrier mobility properties) of the liquid crystal compound (2-1) ((2), m=1, n=1) obtained in Example 2 were measured by a Time-of-Flight (TOF) method. In this method, while a DC voltage was applied to a sandwich-type sample (liquid crystal cell produced in Example 4) having photoconductivity, the sample was irradiated with a pulse laser to cause photocarriers to be generated on one side of the sample, and a change in displacement current (transient photocurrent) induced in an external circuit when the carriers transited in the sample over time was measured. A constant current was generated by the transit of photocarriers, and when the carriers reached the counter electrode, the current was decayed to 0. The time from a start of decay in transient photocurrent to 0 corresponds to the time required for the carriers to transit in the sample (transit time). When the thickness of the sample is represented by d (cm), an applied voltage is represented by V (volt), and the transit time is represented by tT, mobility p (cm^2/Vs) is represented by the following mathematical expression. When an electrode on the irradiation side is biased to positive, mobility of positive carriers is determined, and when an electrode on the irradiation side is biased to negative, mobility of negative carriers is determined.
The measurement by a Time-of-Flight method was performed as follows. That is, while a voltage was applied to the liquid crystal cell produced in Example 4 at room temperature, the liquid crystal cell was irradiated with a pulse laser (Nd: YAG laser, THG: wavelength of 356 nm, pulse width of 1 ns), and a displacement current induced at the time of the irradiation was measured with a digital oscilloscope. […] In FIG. 7, the horizontal axis indicates time (μs), and the vertical axis indicates a photocurrent (μA). The present sample has favorable photoconductivity, and thus, sufficiently strong current signal could be obtained. […] According to the measurement result, the mobility of negative carriers reached maximum at 1×10^−3 cm^2/Vs at 30° C. This value is higher by an order of magnitude than the mobility of a conjugate polymer-fullerene derivative composite generally used in a bulk hetero junction-type organic thin-film solar battery.
Charge transport properties (carrier mobility properties) of the liquid crystal compound (2-44) ((2), m=0, n=1)) were measured through transient photocurrent measurement by a Time-of-Flight method using the liquid crystal cell produced in Example 8. The transient photocurrent measurement by a Time-of-Flight method was performed in the same manner as in the measurement of charge transport properties (carrier mobility properties) of the liquid crystal compound (2-1) ((2), m=1, n=1). The thickness of a sample of the liquid crystal compound (2-44) ((2), m=0, n=1)) was 25 μm. The measurement temperature was 40° C., and the measurement was performed while changing an applied voltage from 10 V to 100 V by 10 V increments. The graphs of FIGS. 11A and 11B show the results of the measurement. In FIGS. 11A and 11B, the horizontal axis indicates time (μs), and the vertical axis indicates a photocurrent (μA). As shown in FIGS. 11A and 11B, in the same time of flight, the higher the applied voltage was, the higher the photocurrent flowed.
In addition, the same measurement as in FIGS. 11A and 11B was performed with a change in measurement temperature from 25° C. to 130° C. The result of the measurement is shown in a graph of FIG. 12A. In FIG. 12A, the horizontal axis indicates an electric field strength (10^4 V/cm), and the vertical axis indicates carrier mobility (cm^2/Vs). […] Thus, the vertical axis (carrier mobility) is equal to electron mobility.
A result of the measurement at an electric field strength of 4.0×10^4 V/cm in FIG. 12A is shown in a graph of FIG. 12B as a function of time and electron mobility. […]

Structure (SMILES)	solubility in organic solvents [1]	maximum electron mobility calculated by the TOF method [2]	electron mobility relative to the maximum electron mobility of liquid crystal compound (2-1) [2]	other results
C=CCN1C(=O)c2ccc3c4ccc5c6c(ccc(c7ccc(c2c37)C1=O)c64)C(=O)N(CC=C)C5=O [Compound (6), perylene tetracarboxylic acid bis(allylimide)]	barely dissolved in an organic solvent			
C[Si](C)(C)O[Si](C)(C)O[Si](C)(C)CCCCC(CCCC[Si](C)(C)O[Si](C)(C)O[Si](C)(C)C)Oc1ccc(N2C(=O)c3ccc4c5ccc6c7c(ccc(c8ccc(c3c48)C2=O)c75)C(=O)N(c2ccc(OC(CCCC[Si](C)(C)O[Si](C)(C)O[Si](C)(C)C)CCCC[Si](C)(C)O[Si](C)(C)O[Si](C)(C)C)cc2)C6=O)cc1 [Compound (5-1), N—N′-bis(4-(1,9,-di(1,1,1,3,3,5,5-heptamethyltrisiloxanyl)nonane-5-yloxy)phenyl)perylene-3,4,9,10-tetracarboxylic acid bisimide]		1×10^−4 cm/Vs		
C[Si](C)(C)O[Si](C)(C)O[Si](C)(C)CCCCC(CCCC[Si](C)(C)O[Si](C)(C)O[Si](C)(C)C)N1C(=O)c2ccc3c4ccc5c6c(ccc(c7ccc(c2c37)C1=O)c64)C(=O)N(C(CCCC[Si](C)(C)O[Si](C)(C)O[Si](C)(C)C)CCCC[Si](C)(C)O[Si](C)(C)O[Si](C)(C)C)C5=O [Compound (2-1), perylene tetracarboxylic acid bis{di-(1,1,1,3,3,5,5-heptamethyltrisiloxanylbutyl)-methylimide}]	soluble in ethyl acetate, acetone, cyclohexane, and the like in addition to toluene, chlorobenzene, tetrahydrofuran, chloroform, dichloromethane, and the like; also recorded: high solubility in various organic solvents			
C[Si](C)(C)O[Si](C)(C)CCCCCCC(CCCCCC[Si](C)(C)O[Si](C)(C)C)N1C(=O)c2ccc3c4ccc5c6c(ccc(c7ccc(c2c37)C1=O)c64)C(=O)N(C(CCCCCC[Si](C)(C)O[Si](C)(C)C)CCCCCC[Si](C)(C)O[Si](C)(C)C)C5=O [Compound (2-46)]		1×10^−2 cm/Vs	about 10 times higher	
C[Si](C)(C)O[Si](C)(C)CCCCC(CCCC[Si](C)(C)O[Si](C)(C)C)N1C(=O)c2ccc3c4ccc5c6c(ccc(c7ccc(c2c37)C1=O)c64)C(=O)N(C(CCCC[Si](C)(C)O[Si](C)(C)C)CCCC[Si](C)(C)O[Si](C)(C)C)C5=O [Compound (2-44)]			100 times higher	maximum electron mobility ([2]; 40° C., electric field strength 4.0×10^4 V/cm, sample thickness 25 μm): 1.2×10^−1 cm^2/Vs; electron mobility at 130° C. relative to the electron mobility at 40° C. ([2]; temperature increased to 130° C.): about a half
C[Si](C)(C)O[Si](C)(C)O[Si](C)(C)CCCN1C(=O)c2ccc3c4ccc5c6c(ccc(c7ccc(c2c37)C1=O)c64)C(=O)N(CCC[Si](C)(C)O[Si](C)(C)O[Si](C)(C)C)C5=O [Compound (1-1), perylene tetracarboxylic acid bis(1,1,1,3,3,5,5-heptamethyltrisiloxanylpropylimide)]	soluble in toluene, chlorobenzene, tetrahydrofuran, chloroform, dichloromethane, and the like; also recorded: high solubility in various organic solvents			
